Laboratory results from patent US4162253A, “Acaricidal agents” (Pfizer Inc., priority 1975, dated 1979).

Tested on: Adult Boophilus microplus
Assay: Topical application test on fully engorged adult Boophilus microplus ticks; overall reduction in anticipated reproduction (eggs laid and hatching)
Type: in vivo
Conditions: Rhipicephalus microplus, read-out: In Vitro Activity (topical application) vs. Adult Boophilus microplus % Effect; for inhibition at 0.5 µg/tick: 0.5 μg/tick; for inhibition at 1 µg/tick: 1 μg/tick; for inhibition at 2 µg/tick: 2 μg/tick; for inhibition at 4 µg/tick: 4 μg/tick; for inhibition at 8 µg/tick: 8 μg/tick; for inhibition at 10 µg/tick: 10 μg/tick
Experimental: In one test, five freshly collected, fully engorged Boophilus microplus adult ticks are used for each acaricidal compound. Using a micro-pipette, 10 micro-liters of a solution containing 10 micro-grams of the acaricidal compound in ethanol or acetone, is applied to the dorsal surface of each of the ticks. The treated ticks are placed in weighted 1"×2" glass vials, weighted and stored at 26° C. and 80% relative humidity in plastic boxes for two weeks. The ticks are then removed from the vials and the vials weighted to give the weight of eggs laid by the ticks. Any reduction in the egg laying of the treated ticks is caculated as a percentage of the eggs laid by untreated control ticks.
The eggs are returned to the incubator for a further 3 weeks after which time the percentage of eggs hatching is estimated.
The percentage effect is calculated as the overall reduction in the anticipated reproduction of the ticks using the weight of eggs laid and the percentage of eggs hatching.
The test may be repeated using smaller amounts of the acaricidal compound for sufficiently active compounds.
The activity of many of the compounds of the Examples detailed hereinafter against the tick Boophilus microplus has been determined.

SMILES | inhibition at 0.5 µg/tick | inhibition at 1 µg/tick | inhibition at 2 µg/tick | inhibition at 4 µg/tick | inhibition at 8 µg/tick | inhibition at 10 µg/tick
CCCCCCCCCCCCCCC[N+]1=C2SC(C)=C(c3ccccc3)N2CC1 [Example 43] | 4% | 23% | 72% | 96% | 100% | 100%
CCCCCCCCCCCCCCCCC[N+]1=C2SC(C)=C(c3ccccc3)N2CC1 [Example 44] | 0% | 63% | 89% | 93% | 100% | 100%
CCCCCCCCCCCCCCCCCC[N+]1=C2SC(C)=C(c3ccccc3)N2CC1 [Example 45] |  |  |  |  |  | 88%
CCCCCCCCCC[N+]1=C2SC(C)=C(c3ccccc3)N2CC1 [Example 46] |  |  |  |  |  | 95%
